Data from PubChem BioAssay AID1963985 (Molecular Pharmacology Branch, DTP, NCI, 2024).

Tested on: 252836-082-R-J2-PDC tumor spheroids, viability
Assay: Anticancer human tumor 252836-082-R-J2-PDC patient-derived head and neck squamous cell carcinoma cell line growth inhibition [PI3K]
Conditions: spheroids with HUVEC and MSC; for IC50: curve of first compound; for viability, T/C: stronger effect = lower value
In short: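 Complex 3D spheroids (cancer cells + endothelial HUVEC + mesenchymal stem cells); drug pairs of targeted agent x inavolisib/alpelisib/duvelisib/copanlisib; half-log series from ~Cmax, max 10 microM if Cmax unknown; endpoint viability.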
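Note: spheroids exposed to agents for seven days before readout.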
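Throughout, for viability, T/C: percent of vehicle DMSO control viability so 100% = untreated growth.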

- IC50 (second compound 0.00316 µM): 90.6 nM
- IC50 (second compound 0.01 µM): 44.1 nM
- IC50 (second compound 0.0316 µM): 13 nM
- IC50 (second compound 0.1 µM): < 0.316 nM
- IC50 (second compound 0.316 µM): < 0.316 nM
- IC50 (second compound 1 µM): < 0.316 nM
Compound: Cn1ncnc1[C@H]1c2n[nH]c(=O)c3cc(F)cc(c23)N[C@@H]1c1ccc(F)cc1 + COc1c(OCCCN2CCOCC2)ccc2c3n(c(=NC(=O)c4cnc(N)nc4)nc12)CCN3
- viability, T/C (second compound 0.00316 µM, first compound 0.000316 µM): 84.3%
- viability, T/C (second compound 0.00316 µM, first compound 0.001 µM): 88.2%
- viability, T/C (second compound 0.00316 µM, first compound 0.00316 µM): 86.4%
- viability, T/C (second compound 0.00316 µM, first compound 0.01 µM): 72.1%
- viability, T/C (second compound 0.00316 µM, first compound 0.0316 µM): 59.7%
- viability, T/C (second compound 0.00316 µM, first compound 0.1 µM): 48.6%
- viability, T/C (second compound 0.01 µM, first compound 0.000316 µM): 80.1%
- viability, T/C (second compound 0.01 µM, first compound 0.001 µM): 67.5%
- viability, T/C (second compound 0.01 µM, first compound 0.00316 µM): 80.7%
- viability, T/C (second compound 0.01 µM, first compound 0.01 µM): 72.8%
- viability, T/C (second compound 0.01 µM, first compound 0.0316 µM): 55.6%
- viability, T/C (second compound 0.01 µM, first compound 0.1 µM): 36.2%
- viability, T/C (second compound 0.0316 µM, first compound 0.000316 µM): 49.3%
- viability, T/C (second compound 0.0316 µM, first compound 0.001 µM): 60.8%
- viability, T/C (second compound 0.0316 µM, first compound 0.00316 µM): 52%
- viability, T/C (second compound 0.0316 µM, first compound 0.01 µM): 52.1%
- viability, T/C (second compound 0.0316 µM, first compound 0.0316 µM): 44.2%
- viability, T/C (second compound 0.0316 µM, first compound 0.1 µM): 24.4%
- viability, T/C (second compound 0.1 µM, first compound 0.000316 µM): 33.4%
- viability, T/C (second compound 0.1 µM, first compound 0.001 µM): 35.1%
- viability, T/C (second compound 0.1 µM, first compound 0.00316 µM): 34.8%
- viability, T/C (second compound 0.1 µM, first compound 0.01 µM): 30.9%
- viability, T/C (second compound 0.1 µM, first compound 0.0316 µM): 19%
- viability, T/C (second compound 0.1 µM, first compound 0.1 µM): 11.8%
- viability, T/C (second compound 0.316 µM, first compound 0.000316 µM): 19.1%
- viability, T/C (second compound 0.316 µM, first compound 0.001 µM): 16%
- viability, T/C (second compound 0.316 µM, first compound 0.00316 µM): 13.6%
- viability, T/C (second compound 0.316 µM, first compound 0.01 µM): 9.81%
- viability, T/C (second compound 0.316 µM, first compound 0.0316 µM): 8.53%
- viability, T/C (second compound 0.316 µM, first compound 0.1 µM): 6.35%
- viability, T/C (second compound 1 µM, first compound 0.000316 µM): 4.84%
- viability, T/C (second compound 1 µM, first compound 0.001 µM): 4.33%
- viability, T/C (second compound 1 µM, first compound 0.00316 µM): 3.36%
- viability, T/C (second compound 1 µM, first compound 0.01 µM): 2.93%
- viability, T/C (second compound 1 µM, first compound 0.0316 µM): 1.98%
- viability, T/C (second compound 1 µM, first compound 0.1 µM): 2.41%
